By EC50 is commonly meant the concentration at which the effect is half-maximal.

Holding throughout (assay): HEK293 SEAP reporter assay, other TLRs (Biological Example 3)
What all share (type): cell-based

For one experiment, the target named is T1, human TLR2 (Homo sapiens, UniProt O60603).
T1 construct: host or cells: HEK293
Conditions: 16 hrs, up to 1 μM. The source says: (§1) In this example, the activity of the Compound 1 to stimulate different human and mouse TLR pathways was investigated on HEK293 cells transfected with inducible SEAP (secreted embryonic alkaline phosphatase) reporter genes and also expressing different human TLRs (TLR2, TLR3, TLR4, TLR5, TLR7, TLR8, TLRS) or mouse TLRs (TLR2, TLR3, TLR4, TLR5, TLR7, TLR8, TLR13). Compound A
(§2) HEK293 reporter cell lines were purchased from Invivogen and cell lines were maintained in manufacture recommended culture medium with required supplemental antibiotics. On the day of assay, the cells were harvested with Accutase and counted by the Vi-CELL Cell Viability Analyzers. Cells were re-suspended in HEK blue detection medium and a total of 10000 cells were seeded in each well of a 384-well flat bottom plate. […] Assay plates were cultured at 37° C. in a CO2 incubator for 16 hrs. HEK-Blue™ Detection medium changes to a purple/blue color in the presence of secreted SEAP, which can be detected by spectrophotometry at 620-655 nm. Data was fitted with non-linear regression analysis, using a log(inhibitor) vs. response-variable slope, 3-parameter fit with GraphPad Prism.

The next experiment addresses T2, mouse TLR3 (Mus musculus, UniProt Q99MB1).
T2 construct: host or cells: HEK293
T2 sequence (Q99MB1 26-905): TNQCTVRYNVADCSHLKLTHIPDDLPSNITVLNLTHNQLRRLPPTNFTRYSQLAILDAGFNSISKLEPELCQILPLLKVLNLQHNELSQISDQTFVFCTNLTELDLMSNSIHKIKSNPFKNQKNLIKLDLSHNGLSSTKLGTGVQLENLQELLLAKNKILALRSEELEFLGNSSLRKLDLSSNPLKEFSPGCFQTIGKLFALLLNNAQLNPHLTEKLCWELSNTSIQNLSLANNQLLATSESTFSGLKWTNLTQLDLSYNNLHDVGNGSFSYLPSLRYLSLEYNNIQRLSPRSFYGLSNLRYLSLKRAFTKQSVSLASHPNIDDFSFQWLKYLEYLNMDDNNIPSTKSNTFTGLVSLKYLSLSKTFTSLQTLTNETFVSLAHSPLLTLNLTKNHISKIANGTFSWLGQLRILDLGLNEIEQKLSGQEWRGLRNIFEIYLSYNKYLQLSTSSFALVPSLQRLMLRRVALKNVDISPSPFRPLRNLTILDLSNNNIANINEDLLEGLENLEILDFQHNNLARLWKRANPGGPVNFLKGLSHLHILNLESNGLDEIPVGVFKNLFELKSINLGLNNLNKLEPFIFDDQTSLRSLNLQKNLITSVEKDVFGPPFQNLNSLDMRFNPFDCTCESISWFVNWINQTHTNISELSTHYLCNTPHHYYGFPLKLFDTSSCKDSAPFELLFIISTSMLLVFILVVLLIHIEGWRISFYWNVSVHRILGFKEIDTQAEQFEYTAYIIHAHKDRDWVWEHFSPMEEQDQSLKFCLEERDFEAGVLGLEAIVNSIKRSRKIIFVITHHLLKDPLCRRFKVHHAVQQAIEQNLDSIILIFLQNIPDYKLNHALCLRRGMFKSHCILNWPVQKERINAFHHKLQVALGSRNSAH
Conditions: 16 hrs, up to 1 μM.
From the text: as §1, §2

In another experiment the target is T3, mouse TLR7 (Mus musculus, UniProt P58681).
T3 construct: host or cells: HEK293
T3 sequence (P58681 27-1050): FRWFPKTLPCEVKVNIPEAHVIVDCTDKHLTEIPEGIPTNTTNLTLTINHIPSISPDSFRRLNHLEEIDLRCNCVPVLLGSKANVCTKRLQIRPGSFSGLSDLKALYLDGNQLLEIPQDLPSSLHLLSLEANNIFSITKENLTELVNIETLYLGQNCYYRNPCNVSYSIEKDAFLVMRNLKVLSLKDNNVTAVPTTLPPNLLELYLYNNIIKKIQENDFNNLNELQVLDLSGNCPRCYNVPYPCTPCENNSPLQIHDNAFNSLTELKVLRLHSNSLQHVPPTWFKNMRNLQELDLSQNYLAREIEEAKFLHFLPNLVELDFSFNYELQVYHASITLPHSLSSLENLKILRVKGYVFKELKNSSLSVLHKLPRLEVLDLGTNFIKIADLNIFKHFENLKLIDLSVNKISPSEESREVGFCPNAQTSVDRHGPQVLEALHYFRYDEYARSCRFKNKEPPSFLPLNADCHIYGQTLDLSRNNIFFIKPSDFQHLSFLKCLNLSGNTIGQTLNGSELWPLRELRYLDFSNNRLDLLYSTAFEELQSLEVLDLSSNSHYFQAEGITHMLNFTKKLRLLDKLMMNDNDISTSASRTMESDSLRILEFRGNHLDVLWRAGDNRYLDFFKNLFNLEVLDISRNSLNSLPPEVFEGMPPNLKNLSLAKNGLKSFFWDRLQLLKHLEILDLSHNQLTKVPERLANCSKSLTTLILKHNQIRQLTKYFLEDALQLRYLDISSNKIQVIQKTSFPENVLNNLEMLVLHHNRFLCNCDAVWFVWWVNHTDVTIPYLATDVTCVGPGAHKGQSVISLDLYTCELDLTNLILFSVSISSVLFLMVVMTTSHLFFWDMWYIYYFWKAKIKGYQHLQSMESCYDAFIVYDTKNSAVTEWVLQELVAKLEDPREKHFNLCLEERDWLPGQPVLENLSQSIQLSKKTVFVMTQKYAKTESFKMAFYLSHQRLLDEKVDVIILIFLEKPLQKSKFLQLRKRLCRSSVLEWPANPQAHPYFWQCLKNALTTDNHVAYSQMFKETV
Conditions: 16 hrs, * = Estimated.
From the text: as §1, §2

T1 sequence (O60603 21-784): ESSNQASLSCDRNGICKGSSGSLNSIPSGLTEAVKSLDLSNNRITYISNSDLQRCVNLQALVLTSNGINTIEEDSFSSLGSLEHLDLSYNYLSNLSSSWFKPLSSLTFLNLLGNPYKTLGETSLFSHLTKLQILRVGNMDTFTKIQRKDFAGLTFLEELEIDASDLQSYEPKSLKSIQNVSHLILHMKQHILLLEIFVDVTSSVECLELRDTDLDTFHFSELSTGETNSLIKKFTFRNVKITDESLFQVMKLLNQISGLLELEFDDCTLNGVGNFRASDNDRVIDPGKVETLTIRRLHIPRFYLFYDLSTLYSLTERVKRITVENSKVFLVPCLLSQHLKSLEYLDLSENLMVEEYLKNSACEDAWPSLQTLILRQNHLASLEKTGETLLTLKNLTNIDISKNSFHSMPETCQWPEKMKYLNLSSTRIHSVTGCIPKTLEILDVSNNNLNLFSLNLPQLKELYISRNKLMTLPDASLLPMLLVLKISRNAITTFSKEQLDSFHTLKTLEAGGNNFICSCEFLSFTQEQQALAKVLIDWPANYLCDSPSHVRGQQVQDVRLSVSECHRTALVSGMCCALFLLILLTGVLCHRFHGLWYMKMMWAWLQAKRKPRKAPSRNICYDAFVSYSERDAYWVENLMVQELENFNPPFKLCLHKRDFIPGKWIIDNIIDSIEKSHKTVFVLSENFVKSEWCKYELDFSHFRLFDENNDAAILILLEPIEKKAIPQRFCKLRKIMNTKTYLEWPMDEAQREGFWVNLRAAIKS

Regarding `CCCCn1nc2c(N)nc3ccccc3c2c1Cc1ccc(CN)cc1` [Compound 1, 1-(4-(aminomethyl)benzyl)-2-butyl-2H-pyrazolo[3,4-c]quinolin-4-amine], the 50% effective concentration (EC50) is greater than 1000 nM at human TLR2, greater than 1000 nM at mouse TLR3 and roughly 21.8 nM on mouse TLR7.
Consider `CCCCc1nc2c(N)nc3ccccc3c2n1Cc1ccc(CN)cc1` [Compound A, reference compound], for which the half-maximal effective concentration (EC50) on human TLR2 was greater than 1000 nM; on mouse TLR3 it was greater than 1000 nM; at mouse TLR7, 15.9 nM.
